# Columns and labels:
# [1] = test system: human stomach cancer cell line NCI-N87; assay: Combination of Compound 1 and capecitabine (in vivo), subcutaneous tumor in nude mice; design: species or system nude mouse (BALB/cAJcl-nu/nu); conditions: for T/C (%): Day 15
# Method: A human stomach cancer cell line NCI-N87 was obtained from American Type Culture Collection (ATCC). The cell line was cultured at 37° C. in a 5% CO2 incubator using RPMI-1640 (containing 4.5 g/L glucose, 10 mM HEPES, and 1 mM sodium pyruvate) (Wako Pure Chemical Industries, Ltd.) medium containing 10% fetal bovine serum (FBS).
# The NCI-N87 cells were resuspended at a concentration of 8×10^7 cells/mL in PBS.
# The cell suspension was subcutaneously transplanted in an amount of 8×10^6 cells/0.1 mL to the right chest of a 6-week-old nude mouse (BALB/cAJcl-nu/nu, CLEA Japan, Inc.) using a 1 mL syringe for tuberculin and a 25 G injection needle.
# Electronic calipers were used in tumor size measurement.
# [2] = test system: KPL-4 (human breast cancer); assay: Combination of Compound 1 and other antitumor agents (in vitro), CellTiter-Glo, median effect method; format: cell-based
# Method: The supplier of each reagent, the suppliers of tumor cell lines, the media used, and the numbers of cells to be inoculated are shown in the tables below.
# The cells were inoculated at 20 μL/well to a 384-well culture plate (Corning Inc.). The plate inoculated with the cells were cultured in an incubator set to 37° C. and 5% CO2. On the day following inoculation, each of mixed solutions of Compound 1 and each other antitumor agent at varying combinations of concentrations was added to the cells. Specifically, 8 serial dilutions (including (0 nM)) of Compound 1 and 10 serial dilutions (including (0 nM)) of the other antitumor agent were prepared using Leibovitz's L-15 medium containing 10% FBS, or ATCC formulated RPMI-1640 medium containing 10% FBS. Drug solutions in which equal amounts of the respective serial dilutions of the compounds were dispensed were mixed at a ratio of 1:1 to prepare a total of 80 mixed drug solutions including every combination. Each of these mixed drug solutions was added at 5 μL/well (N=4) to the plate, followed by further culture for 3 days under conditions of 37° C. and 5% CO2.
# Three days later, CellTiter-Glo™ 2.0 Reagent (Promega Corporation) was added thereto at 25 μL/well, and chemiluminescence was measured using a plate reader (EnSpire® Multimode Plate Reader, PerkinElmer Japan Co., Ltd.).
# The enhancement of an effect by combined use of the drugs was evaluated according to a method known in the art (a method described in Trends Pharmacol. Sci., 4, 450-454, 1983 or Pharmacol Rev., 58 (3), 621-81, 2006).
# An average value from 4 wells of each combination was calculated from the obtained data, and a cell survival rate normalized against a control supplemented with a medium containing a vehicle was calculated. A Fa (fraction of affect) value was calculated by subtracting the cell survival rate from 1. Median effect analysis software CalcuSyn 2.0 (CalcuSyn, Inc.) for calculation by the median effect method was used in the calculation of CI.
# As for the combinations of the concentrations of both the drugs for calculating CI, a Fa value closer to 1 presumably means a concentration range in which one of the drugs had too strong an effect, and a Fa value closer to 0 presumably means a concentration range in which any of the drugs had too weak an effect. Since these concentration ranges were not appropriate for the discussion of a synergistic effect, combinations that satisfied 0.2 S Fa 0.8 were extracted from the combinations of the respective concentrations of Compound 1 and the other antitumor agent on the basis of the calculated Fa value.
# An effect of combined use was determined as shown in the table below (Pharmacol Rev., 58 (3), p. 621-81, 2006).
# [3] = test system: Human stomach cancer cells 4-1st; assay: Combination of Compound 1 and trastuzumab emtansine (in vivo), subcutaneous tumor in nude mice; conditions: for T/C (%): Day 15; for BWC (%) Day 15 Mean: mouse, in vivo, po
# Text: Human stomach cancer cells 4-1st were obtained as fragment tumor from the Central Institute for Experimental Animals. Tumor was excised approximately one month after subcutaneous transplantation and passage in a nude mouse (BALB/cAJcl-nu/nu, CLEA Japan, Inc.), and prepared into a fragment of approximately 2 mm square. A transplantation needle was packed with one fragment and subcutaneously inserted from around the right most distal rib of a nude mouse. After entrance to the right back, the inner cylinder was pushed to eject and transplant the tumor. Electronic calipers were used in tumor size measurement, and the major axis and the minor axis of the tumor of each mouse were measured by sandwiching the tumor between the measuring surfaces of the electronic calipers (Days 0, 4, 8, 11 and 15). A tumor volume (TV) was calculated from the major axis and the minor axis. A relative tumor volume (RTV) and a rate of change in relative tumor volume (T/C) were calculated from the calculated tumor volume. TV, RTV, and T/C were calculated according to the following expressions. Tumor volume TV (mm^3)=(Major axis, mm)×(Minor axis, mm)×(Minor axis, mm)/2 Relative tumor volume RTV=(TV on the day of measurement)/(TV on the day of grouping) Rate of change in relative tumor volume T/C (%)=(Average RTV of an administration group)/(Average RTV of a control group)×100
# An electronic balance for animals was used in body weight measurement. A rate of change in body weight on day n (BWCn) was calculated from the body weight on day n (BWn) according to the following expression. Rate of change in body weight BWCn (%)=(BWn−BW0)/BW0×100
# Nude mice whose TV reached 100 to 300 mm^3 were selected, and six animals were assigned to each group by the equal number method (MiSTAT (ver. 2.0)) such that average TV was equalized among groups.
# The presence or absence of an effect of combined use and toxicity were determined from tumor sizes and body weights on the day of grouping (Day 0) and the day of evaluation (Day 15). During the administration period, the body weights were measured every day for the calculation of the amount of a dosing solution.
# [4] = Compound 1 15 mg/kg/day p.o. Days 1-14
# [5] = Compound 1 30 mg/kg/day p.o. Days 1-14
# [6] = Compound 1 68.6 nM + Paclitaxel 0.0229 nM, ratio 1:0.00033, KPL-4
# [7] = Compound 1 68.6 nM + Paclitaxel […], ratio 1:0.00011, KPL-4
# [8] = Compound 1 206 nM + Paclitaxel 0.617 nM, ratio 1:0.0030, KPL-4
# [9] = Compound 1 206 nM + Paclitaxel 1.85 nM, ratio 1:0.0090, KPL-4
# [10] = Compound 1 617 nM + Paclitaxel 1.85 nM, ratio 1:0.0030, KPL-4
# [11] = Compound 1 1852 nM + Paclitaxel 1.85 nM, ratio 1:0.0010, KPL-4
# [12] = Compound 1 5556 nM + Paclitaxel 1.85 nM, ratio 1:0.00033, KPL-4
# [13] = Compound 1 5556 nM + Paclitaxel 5.56 nM, ratio 1:0.0010, KPL-4
# [14] = Compound 1 16667 nM + Paclitaxel 1.85 nM, ratio 1:0.00011, KPL-4
# [15] = Compound 1 50000 nM + Paclitaxel 1.85 nM, ratio 1:0.000037, KPL-4
# [16] = Compound 1 7.5 mg/kg/day p.o. Days 1-14
structure (smiles),measurement,setting,value
"C=CC(=O)N1CCC[C@@H](n2nc(C(=O)Nc3ccc(CC(=O)N(C)C)c(C)c3C)c3c(N)ncnc32)C1 [Compound 1, (R)-1-(1-acryloylpiperidin-3-yl)-4-amino-N-(4-(2-(dimethylamino)-2-oxoethyl)-2,3-dimethylphenyl)-1H-pyrazolo[3,4-d]pyrimidine-3-carboxamide]",BWC (%) Day 15 Mean,[1]; [4],8.35%
same,RTV Day 15 Mean ± SD,[1]; [4],1.69 ± 0.39
same,T/C (%),[1]; [4],40.8%
same,BWC (%) Day 15 Mean,[1]; [5],6.43%
same,RTV Day 15 Mean ± SD,[1]; [5],0.67 ± 0.15
same,T/C (%),[1]; [5],16.3%
same,CI,[2]; [6],0.03
same,Fa,[2]; [6],0.44
same,CI,[2]; [7],0.15
same,Fa,[2]; [7],0.32
same,CI,[2]; [8],0.50
same,Fa,[2]; [8],0.33
same,CI,[2]; [9],0.30
same,Fa,[2]; [9],0.52
same,CI,[2]; [10],0.31
same,Fa,[2]; [10],0.54
same,CI,[2]; [11],0.36
same,Fa,[2]; [11],0.55
same,CI,[2]; [12],0.48
same,Fa,[2]; [12],0.57
same,CI,[2]; [13],0.44
same,Fa,[2]; [13],0.78
same,CI,[2]; [14],0.38
same,Fa,[2]; [14],0.66
same,CI,[2]; [15],0.13
same,Fa,[2]; [15],0.86
same,RTV Day 15 Mean ± SD,[3]; [16],5.92 ± 0.38
same,T/C (%),[3]; [16],51.6%
same,RTV Day 15 Mean ± SD,[3]; [4],3.58 ± 0.41
same,T/C (%),[3]; [4],31.2%
same,BWC (%) Day 15 Mean,[3]; 7.5 mg/kg/day,7.41%
same,BWC (%) Day 15 Mean,[3]; 15 mg/kg/day,3.63%

# — patent US11696917B2, “Agent enhancing antitumor effect using pyrazolo[3,4-d]pyrimidine compound” (TAIHO PHARMACEUTICAL CO., LTD., priority 2017, dated 2023)
